Measurements from patent US20220281848A1, “PYRAZOLE-SUBSTITUTED PYRROLIDINONES AS HERBICIDES” (FMC Corporation, priority 2019, published 2022).

Tested on: plants
Test: Test D pre-emergence, other plants of Tables D1 and D3
Assay type: in vivo
Settings: for damage to plant (100=total damage to plant; 0=no damage to plant), SORVU: preemergent, 20 DAA; for damage to plant, ALOMY / damage to plant, AVEFA / damage to plant, BEAVA / damage to plant, BROTE / damage to plant, BRSNN / damage to plant, CHEAL / damage to plant, GALAP / damage to plant, HORVW / damage to plant, KCHSC / damage to plant, LOLPE / damage to plant, POAAN / damage to plant, POLCO / damage to plant, SINAR / damage to plant, STEME / damage to plant, VERPE: pre-emergence, 100=total damage, 0=no damage
Procedure, shortened: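 Seeds treated with herbicide safener; sown in soil; glasshouse, 16 h light, 65% humidity. Sprayed day 1 (pre) or ~day 12 (post). Spray in 0.2% v/v adjuvant. Scored 0–100 damage: 20 DAA pre, 15 d post.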

Question: Which “damage to plant (100=total damage to plant; 0=no damage to plant), SORVU” value (rate 130) does the source give for `CN1C[C@H](c2nn(C)c3c(F)cccc23)[C@@H](C(=O)Nc2cccc(F)c2F)C1=O` [Compound 2] here?
Answer: 0

Question: And the “damage to plant (100=total damage to plant; 0=no damage to plant), SORVU” value (rate 250)?
Answer: 0

Question: And the “damage to plant (100=total damage to plant; 0=no damage to plant), SORVU” value (rate 500)?
Answer: 0

Question: What about the “damage to plant, ALOMY” value (rate 15, 20 DAA) of the same compound?
Answer: 0

Question: And the “damage to plant, AVEFA” value (rate 15, 20 DAA)?
Answer: 0

Question: What about the “damage to plant, BEAVA” value (rate 15, 20 DAA) of the same compound?
Answer: 0

Question: What about the “damage to plant, BROTE” value (rate 15, 20 DAA) of the same compound?
Answer: 0

Question: What about the “damage to plant, BRSNN” value (rate 15, 20 DAA) of the same compound?
Answer: 0

Question: And the “damage to plant, CHEAL” value (rate 15, 20 DAA)?
Answer: 0

Question: And the “damage to plant, GALAP” value (rate 15, 20 DAA)?
Answer: 0

Question: What about the “damage to plant, HORVW” value (rate 15, 20 DAA) of the same compound?
Answer: 0

Question: And the “damage to plant, KCHSC” value (rate 15, 20 DAA)?
Answer: 0

Question: And the “damage to plant, LOLPE” value (rate 15, 20 DAA)?
Answer: 0

Question: What about the “damage to plant, POAAN” value (rate 15, 20 DAA) of the same compound?
Answer: 0

Question: And the “damage to plant, POLCO” value (rate 15, 20 DAA)?
Answer: 0

Question: What about the “damage to plant, SINAR” value (rate 15, 20 DAA) of the same compound?
Answer: 0

Question: And the “damage to plant, STEME” value (rate 15, 20 DAA)?
Answer: 0

Question: And the “damage to plant, VERPE” value (rate 15, 20 DAA)?
Answer: 0

Question: And the “damage to plant, ALOMY” value (rate 30, 20 DAA)?
Answer: 0

Question: And the “damage to plant, AVEFA” value (rate 30, 20 DAA)?
Answer: 0

Question: What about the “damage to plant, BEAVA” value (rate 30, 20 DAA) of the same compound?
Answer: 0

Question: And the “damage to plant, BROTE” value (rate 30, 20 DAA)?
Answer: 0

Question: And the “damage to plant, BRSNN” value (rate 30, 20 DAA)?
Answer: 0

Question: And the “damage to plant, CHEAL” value (rate 30, 20 DAA)?
Answer: 0

Question: And the “damage to plant, GALAP” value (rate 30, 20 DAA)?
Answer: 0

Question: What about the “damage to plant, HORVW” value (rate 30, 20 DAA) of the same compound?
Answer: 0

Question: And the “damage to plant, KCHSC” value (rate 30, 20 DAA)?
Answer: 0

Question: What about the “damage to plant, LOLPE” value (rate 30, 20 DAA) of the same compound?
Answer: 0

Question: What about the “damage to plant, POAAN” value (rate 30, 20 DAA) of the same compound?
Answer: 0

Question: And the “damage to plant, POLCO” value (rate 30, 20 DAA)?
Answer: 0

Question: What about the “damage to plant, SINAR” value (rate 30, 20 DAA) of the same compound?
Answer: 0

Question: What about the “damage to plant, STEME” value (rate 30, 20 DAA) of the same compound?
Answer: 0

Question: What about the “damage to plant, VERPE” value (rate 30, 20 DAA) of the same compound?
Answer: 0

Question: And the “damage to plant, ALOMY” value (rate 60, 20 DAA)?
Answer: 0

Question: And the “damage to plant, AVEFA” value (rate 60, 20 DAA)?
Answer: 0

Question: What about the “damage to plant, BEAVA” value (rate 60, 20 DAA) of the same compound?
Answer: 0

Question: What about the “damage to plant, BROTE” value (rate 60, 20 DAA) of the same compound?
Answer: 0

Question: And the “damage to plant, BRSNN” value (rate 60, 20 DAA)?
Answer: 0

Question: What about the “damage to plant, CHEAL” value (rate 60, 20 DAA) of the same compound?
Answer: 0

Question: What about the “damage to plant, GALAP” value (rate 60, 20 DAA) of the same compound?
Answer: 0

Question: What about the “damage to plant, HORVW” value (rate 60, 20 DAA) of the same compound?
Answer: 0

Question: And the “damage to plant, KCHSC” value (rate 60, 20 DAA)?
Answer: 0

Question: And the “damage to plant, LOLPE” value (rate 60, 20 DAA)?
Answer: 10

Question: What about the “damage to plant, POAAN” value (rate 60, 20 DAA) of the same compound?
Answer: 0

Question: What about the “damage to plant, POLCO” value (rate 60, 20 DAA) of the same compound?
Answer: 0

Question: What about the “damage to plant, SINAR” value (rate 60, 20 DAA) of the same compound?
Answer: 0

Question: What about the “damage to plant, STEME” value (rate 60, 20 DAA) of the same compound?
Answer: 0

Question: And the “damage to plant, VERPE” value (rate 60, 20 DAA)?
Answer: 0

Question: What about the “damage to plant, ALOMY” value (rate 130, 20 DAA) of the same compound?
Answer: 0

Question: And the “damage to plant, AVEFA” value (rate 130, 20 DAA)?
Answer: 0

Question: And the “damage to plant, BEAVA” value (rate 130, 20 DAA)?
Answer: 0

Question: And the “damage to plant, BROTE” value (rate 130, 20 DAA)?
Answer: 10

Question: What about the “damage to plant, BRSNN” value (rate 130, 20 DAA) of the same compound?
Answer: 0

Question: What about the “damage to plant, CHEAL” value (rate 130, 20 DAA) of the same compound?
Answer: 0

Question: What about the “damage to plant, GALAP” value (rate 130, 20 DAA) of the same compound?
Answer: 0

Question: And the “damage to plant, HORVW” value (rate 130, 20 DAA)?
Answer: 0

Question: And the “damage to plant, KCHSC” value (rate 130, 20 DAA)?
Answer: 0

Question: And the “damage to plant, LOLPE” value (rate 130, 20 DAA)?
Answer: 30

Question: And the “damage to plant, POAAN” value (rate 130, 20 DAA)?
Answer: 10

Question: And the “damage to plant, POLCO” value (rate 130, 20 DAA)?
Answer: 20

Question: What about the “damage to plant, SINAR” value (rate 130, 20 DAA) of the same compound?
Answer: 0

Question: And the “damage to plant, STEME” value (rate 130, 20 DAA)?
Answer: 0

Question: And the “damage to plant, VERPE” value (rate 130, 20 DAA)?
Answer: 0

Question: And the “damage to plant, ALOMY” value (rate 250, 20 DAA)?
Answer: 20

Question: And the “damage to plant, AVEFA” value (rate 250, 20 DAA)?
Answer: 0

Question: What about the “damage to plant, BEAVA” value (rate 250, 20 DAA) of the same compound?
Answer: 0

Question: And the “damage to plant, BROTE” value (rate 250, 20 DAA)?
Answer: 20

Question: And the “damage to plant, BRSNN” value (rate 250, 20 DAA)?
Answer: 10

Question: And the “damage to plant, CHEAL” value (rate 250, 20 DAA)?
Answer: 0

Question: What about the “damage to plant, GALAP” value (rate 250, 20 DAA) of the same compound?
Answer: 0

Question: And the “damage to plant, HORVW” value (rate 250, 20 DAA)?
Answer: 10

Question: And the “damage to plant, KCHSC” value (rate 250, 20 DAA)?
Answer: 0

Question: And the “damage to plant, LOLPE” value (rate 250, 20 DAA)?
Answer: 60

Question: And the “damage to plant, POAAN” value (rate 250, 20 DAA)?
Answer: 50

Question: And the “damage to plant, POLCO” value (rate 250, 20 DAA)?
Answer: 20

Question: And the “damage to plant, SINAR” value (rate 250, 20 DAA)?
Answer: 0

Question: And the “damage to plant, STEME” value (rate 250, 20 DAA)?
Answer: 0

Question: What about the “damage to plant, VERPE” value (rate 250, 20 DAA) of the same compound?
Answer: 0

Question: What about the “damage to plant, ALOMY” value (rate 500, 20 DAA) of the same compound?
Answer: 40

Question: And the “damage to plant, AVEFA” value (rate 500, 20 DAA)?
Answer: 10

Question: And the “damage to plant, BEAVA” value (rate 500, 20 DAA)?
Answer: 10

Question: What about the “damage to plant, BROTE” value (rate 500, 20 DAA) of the same compound?
Answer: 20

Question: What about the “damage to plant, BRSNN” value (rate 500, 20 DAA) of the same compound?
Answer: 20

Question: What about the “damage to plant, CHEAL” value (rate 500, 20 DAA) of the same compound?
Answer: 0

Question: And the “damage to plant, GALAP” value (rate 500, 20 DAA)?
Answer: 0

Question: What about the “damage to plant, HORVW” value (rate 500, 20 DAA) of the same compound?
Answer: 20

Question: And the “damage to plant, KCHSC” value (rate 500, 20 DAA)?
Answer: 0

Question: What about the “damage to plant, LOLPE” value (rate 500, 20 DAA) of the same compound?
Answer: 70

Question: And the “damage to plant, POAAN” value (rate 500, 20 DAA)?
Answer: 90

Question: And the “damage to plant, POLCO” value (rate 500, 20 DAA)?
Answer: 60

Question: And the “damage to plant, SINAR” value (rate 500, 20 DAA)?
Answer: 0

Question: What about the “damage to plant, STEME” value (rate 500, 20 DAA) of the same compound?
Answer: 60

Question: What about the “damage to plant, VERPE” value (rate 500, 20 DAA) of the same compound?
Answer: 0
